# Assay results from ChEMBL document CHEMBL1122738, “A cyclic angiotensin antagonist: [1,8-cysteine]angiotensin II” (1984).
# Positions of bridges follow the written chain, without caps; N, C: chain ends. Residues, ends and D or L forms follow the SMILES beside them. Chains are numbered I, II in the order given.
# Organism: Rattus norvegicus
# Assay: Minimum effective concentration required to abolish the response to an ED75 dose of ANG II (10e-8 M) in the isolated rat uterus assay
# Type: functional
# Conditions: read-out: MEC
row,Structure (SMILES),minimal effective concentration [µM]
1,"CC[C@H](C)[C@@H]1NC(=O)[C@H](Cc2ccc(O)cc2)NC(=O)[C@H](C(C)C)NC(=O)[C@H](CCCN=C(N)N)NC(=O)[C@@H](N)CSSC[C@H](N)C(=O)N[C@@H](CCCN=C(N)N)C(=O)N[C@@H](C(C)C)C(=O)N[C@@H](Cc2ccc(O)cc2)C(=O)N[C@@H]([C@@H](C)CC)C(=O)N[C@@H](Cc2c[nH]cn2)C(=O)N2CCC[C@H]2C(=O)N[C@H](C(=O)O)CSSC[C@@H](C(=O)O)NC(=O)[C@@H]2CCCN2C(=O)[C@H](Cc2c[nH]cn2)NC1=O (I: H-CRVYIHPC-OH / II: H-CRVYIHPC-OH; disulfide I:1-II:1, I:8-II:8)",9.6
2,CC[C@H](C)[C@H](NC(=O)[C@H](Cc1ccc(O)cc1)NC(=O)[C@@H](NC(=O)[C@H](CCCN=C(N)N)NC(=O)[C@@H](N)CSCNC(C)=O)C(C)C)C(=O)N[C@@H](Cc1c[nH]cn1)C(=O)N1CCC[C@H]1C(=O)N[C@@H](CSCNC(C)=O)C(=O)O,0.24
3,CC[C@H](C)[C@H](NC(=O)[C@@H]1CCCN1C(=O)[C@H](Cc1c[nH]cn1)NC(=O)[C@@H](NC(=O)[C@H](Cc1ccc(O)cc1)NC(=O)[C@@H](NC(=O)[C@H](CCCN=C(N)N)NC(=O)CNC)C(C)C)[C@@H](C)CC)C(=O)O,0.021
4,CC[C@H](C)[C@@H]1NC(=O)[C@H](Cc2ccc(O)cc2)NC(=O)[C@H](C(C)C)NC(=O)[C@H](CCCN=C(N)N)NC(=O)[C@@H](N)CSSC[C@@H](C(=O)O)NC(=O)[C@@H]2CCCN2C(=O)[C@H](Cc2c[nH]cn2)NC1=O (H-CRVYIHPC-OH; disulfide 1-8),3.3
